This note sets out measurements from patent US20080269339A1, “COMBINED USE OF EGF PATHWAY INHIBITORS AND DIFFERENTIATION PROMOTING COMPOUNDS” (priority 2007, published 2008).

The experiment has as its system Human keratinocytes. The experiment can be described thus: Cornified envelope formation (terminal differentiation) in confluent human keratinocyte culture. The format is cell-based. Conditions: for keratinocyte differentiation (percent of cornified envelopes): agent alone vs vehicle control, confluent keratinocytes, 5 days (FIG. 2, FIG. 3). How it is done:
In this study, Keratinocyte Cell Culture-Neonatal foreskin kerinocytes, purchased from Lonza (Walkersville, Md., USA), were grown in keratinocyte-SFM (Gilbro-BRL, Gaithersburg, Md., USA). This complete medium consists of keratinocyte basal medium and supplements (Gibco-BRL), human combinant EGF (5 ng/mL) and bovine pituitary extract (50 μg protein/mL). The calcium concentration in this medium is 0.09 mM.
Unless indicated in the description for a particular figure set forth below, confluent fifth passage keratinocytes were used, with treatments beginning 2 days after the last addition of complete medium. The media was changed and the cells were pretreated with PD153035 (300 nM) for two hours. Media was again changed to contain PD153035 (300 nM) and epidermal growth factor (10 ng/mL) and left for 24 hours. The media was changed a final time to basal media supplemented with 1 mM CaCl2 and 0.1% bovine serum albumin with the indicated chemical additions. The cells were incubated at 37° C., 5% CO2 for 5 days before the comified envelopes were scored. The vehicle, DMSO, was used as the control for both PD153035 and TCDD.
In reference to FIG. 2, Human keratinocytes were grown to confluence and treated with vehicle of media (control), sodium butyrate, epidermal growth factor (EGF) or a combination of EGF and NAB for 5 days. Cornified envelope formation is an endpoint of terminal differentiation. The percent of comified envelopes was calculated by dividing the number of cornified envelopes by the number of cells (times 100).
In FIG. 3, Human keratinocytes were grown to confluence and treated with vehicle of dimethylsulfoxide (DMSO), 2,3,7,8-tetrachlorodibenzo-p-dioxin (TCDD), epidermal growth factor (EFG) or a combination of EGF and TCDD for 5 days. Comified envelope formation is an endpoint of terminal cell differentiation. The percent of cornified envelopes was calculated by dividing the number of cornified envelopes by the number of cells (times 100).
In FIG. 4, Human keratinocytes were grown to confluence and treated with vehicle of DMSO (−/−), sodium butyrate (NaB) alone (−/+); epidermal growth factor (EGF) alone (+/−) or a combination of EGF and NaB (+/+) with or without PD153035 for 5 days. Comified envelope formation is an endpoint of terminal cell differentiation. The average percent (n=3, +/−std dev) of cornified envelopes was calculated by dividing the number of cornified envelopes by the number of cells (times 100).
In FIG. 5, Human keratinocytes were grown to confluence and treated with vehicle of DMSO (−/−), TCDD alone (−/+), epidermal growth factor (EGF) alone (+/−) or a combination of EGF and TCDD (+/+) with or without PD153035 for 5 days. Cornified envelope formation is an endpoint of terminal cell differentiation. The average percent (n=3, +/−std dev) of comified envelopes was calculated by dividing the number of cornified envelopes by the number of cells (times 100).

As to `COc1cc2ncnc(Nc3cccc(Br)c3)c2cc1OC` [PD153035], the “effect on sodium butyrate mediated differentiation (percent of cornified envelopes)” value (PD153035 300 nM, in the presence of EGF 10 ng/mL, 5 days, n=3 (FIG. 4)) is reported as “increasing sodium butyrate mediated differentiation”. The “effect on TCDD-mediated differentiation (percent of cornified envelopes)” value (PD153035 300 nM, in the presence of EGF 10 ng/mL, 5 days, n=3 (FIG. 5)) was “increasing TCDD-mediated differentiation”. As for `Clc1cc2c(cc1Cl)Oc1cc(Cl)c(Cl)cc1O2` [TCDD, 2,3,7,8-tetrachlorodibenzo-p-dioxin], the “keratinocyte differentiation (percent of cornified envelopes)” value is “increases in keratinocyte differentiation”. The same measure, in the same setting: the value for `CCCC(=O)[O-].[Na+]` [sodium butyrate] was “increases in keratinocyte differentiation”. Take “EGF: epidermal growth factor, a growth factor supporting the proliferation of epithelial cells”: the “effect on TCDD increase in keratinocyte differentiation (percent of cornified envelopes)” value (combination of EGF and TCDD, 5 days (FIG. 3)) is given as “inhibited”. Further, the “effect on sodium butyrate increase in keratinocyte differentiation (percent of cornified envelopes)” value (combination of EGF and sodium butyrate, 5 days (FIG. 2)) is reported as “inhibited”.
